row,SMILES,melting point
1,"CNC1CCN(c2c(F)cc3c(=O)c(C(=O)O)cn(C4CC4)c3c2OC)CC1C (stereo not drawn) [Compound 8, 1-Cyclopropyl-6-fluoro-1,4-dihydro-8-methoxy-7-(4-methylamino-3-methyl-1-piperidinyl)-4-oxo-quinoline-3-carboxylic acid]",240 °C (dec.)
2,"CCNC1C(C)CN(c2c(F)cc3c(=O)c(C(=O)O)cn(C4CC4)c3c2OC)CC1C (stereo not drawn) [Example 39, 1-cyclopropyl-6-fluoro-1,4-dihydro-8-methoxy-7-(4-ethylamino-3,5-dimethyl-1-piperidinyl)-4-oxo-quinoline-3-carboxylic acid]",250 to 255 °C
3,"COc1c(N2CCC(N(C)C)C(C)(C)C2)c(F)c(N)c2c(=O)c(C(=O)O)cn(C3CC3)c12 (stereo not drawn) [Compound 76, 5-Amino-1-cyclopropyl-6-fluoro-1,4-dihydro-8-methoxy-7-(4-dimethylamino-3,3-dimethyl-1-piperidinyl)-4-oxo-quinoline-3-carboxylic acid]",178 °C (dec.)
4,"CCNC1CCN(c2c(F)c(N)c3c(=O)c(C(=O)O)cn(C4CC4)c3c2OC)CC1C (stereo not drawn) [Compound 61, 5-Amino-1-cyclopropyl-6-fluoro-1,4-dihydro-8-methoxy-7-(4-ethylamino-3-methyl-1-piperidinyl)-4-oxo-quinoline-3-carboxylic acid]",230 to 232 °C
5,"Cc1c(N2CCC(N)C(C)(C)C2)c(F)cc2c(=O)c(C(=O)O)cn(C3CC3)c12 (single isomer, unassigned; (-)) [Compound 109, (−)-1-Cyclopropyl-6-fluoro-1,4-dihydro-8-methyl-7-(4-amino-3,3-dimethyl-1-piperidinyl)-4-oxo-quinoline-3-carboxylic acid]",195 to 198 °C
6,"CCC1(C)CN(c2c(F)c(N)c3c(=O)c(C(=O)O)cn(C4CC4)c3c2OC)CCC1NC1CC1 (stereo not drawn) [Compound 79, 5-Amino-1-cyclopropyl-6-fluoro-1,4-dihydro-8-methoxy-7-(4-cyclopropylamino-3-methyl-3-ethyl-1-piperidinyl)-4-oxo-quinoline-3-carboxylic acid]",186 to 188 °C
7,"COc1c(N2CC[C@H](N)[C@H](C)C2)c(F)cc2c(=O)c(C(=O)O)cn(C3CC3)c12 (relative stereo) [Compound 5, cis-1-Cyclopropyl-6-fluoro-1,4-dihydro-8-methoxy-7-(4-amino-3-methyl-1-piperidinyl)-4-oxo-quinoline-3-carboxylic acid]",246 to 250 °C
8,"COc1c(N2CC(C)C(N)C(C)C2)c(F)c(N)c2c(=O)c(C(=O)O)cn(C3CC3)c12 (stereo not drawn) [Example 53, 5-Amino-1-cyclopropyl-6-fluoro-1,4-dihydro-8-methoxy-7-(4-amino-3,5-dimethyl-1-piperidinyl)-4-oxo-quinoline-3-carboxylic acid]",248 to 250 °C (dec.)
9,"COc1c(N2CC(C)C(N)C(C)C2)c(F)cc2c(=O)c(C(=O)O)cn(C3CC3)c12 (stereo not drawn) [Compound 44, 1-Cyclopropyl-6-fluoro-1,4-dihydro-8-methoxy-7-(4-amino-3,5-dimethyl-1-piperidinyl)-4-oxo-quinoline-3-carboxylic acid]",178 to 180 °C
10,"Cc1c(N2CCC(N)C(C)(C)C2)c(F)cc2c(=O)c(C(=O)O)cn(C3CC3)c12 (racemic) [Compound 101, (±)-1-Cyclopropyl-6-fluoro-1,4-dihydro-8-methyl-7-(4-amino-3,3-dimethyl-1-piperidinyl)-4-oxo-quinoline-3-carboxylic acid]",198 to 200 °C
11,"COc1c(N2CCC(N)C(C)(C)C2)c(F)c(N)c2c(=O)c(C(=O)O)cn(C3CC3)c12 (stereo not drawn) [Compound 68, 5-Amino-1-cyclopropyl-6-fluoro-1,4-dihydro-8-methoxy-7-(4-amino-3,3-dimethyl-1-piperidinyl)-4-oxo-quinoline-3-carboxylic acid]",205 °C

# Now from value to compound:
row,melting point,SMILES
1,218 to 220 °C,"COc1c(N2CC(C)C(N)C(C)(C)C2)c(F)cc2c(=O)c(C(=O)O)cn(C3CC3)c12 (stereo not drawn) [Compound 50, 1-Cyclopropyl-6-fluoro-1,4-dihydro-8-methoxy-7-(4-amino-3,3,5-trimethyl-1-piperidinyl)-4-oxo-quinoline-3-carboxylic acid]"
2,158 to 160 °C,"COc1c(N2CCC(NC(=O)OCc3ccccc3)C(C)(C)C2)c(F)cc2c(=O)c(C(=O)O)cn(C3CC3)c12 (racemic) [Compound 32, (±)-1-Cyclopropyl-6-fluoro-1,4-dihydro-8-methoxy-7-(4-benzyloxycarbonylamino-3,3-dimethyl-1-piperidinyl)-4-oxo-quinoline-3-carboxylic acid]"
3,152 to 154 °C,"CCC1(C)CN(c2c(F)cc3c(=O)c(C(=O)O)cn(C4CC4)c3c2OC)CCC1N (stereo not drawn) [Compound 39, 1-Cyclopropyl-6-fluoro-1,4-dihydro-8-methoxy-7-(4-amino-3-ethyl-3-methyl-1-piperidinyl)-4-oxo-quinoline-3-carboxylic acid]"
4,190 to 192 °C,"COc1c(N2CCC(NC3CC3)C(C)(C)C2)c(F)cc2c(=O)c(C(=O)O)cn(C3CC3)c12 (stereo not drawn) [Compound 37, 1-Cyclopropyl-6-fluoro-1,4-dihydro-8-methoxy-7-(4-cyclopropylamino-3,3-dimethyl-1-piperidinyl)-4-oxo-quinoline-3-carboxylic acid]"
5,201 to 203 °C,"CCNC1CCN(c2c(F)cc3c(=O)c(C(=O)O)cn(C4CC4)c3c2C)CC1(C)C (stereo not drawn) [Compound 115, 1-Cyclopropyl-6-fluoro-1,4-dihydro-8-methyl-7-(4-ethylamino-3,3-dimethyl-1-piperidinyl)-4-oxo-quinoline-3-carboxylic acid]"
6,194 to 196 °C,"COc1c(N2CCC(NC(C)=O)C(C)(C)C2)c(F)cc2c(=O)c(C(=O)O)cn(C3CC3)c12 (stereo not drawn) [Compound 29, 1-Cyclopropyl-6-fluoro-1,4-dihydro-8-methoxy-7-(4-acetylamino-3,3-dimethyl-1-piperidinyl)-4-oxo-quinoline-3-carboxylic acid]"
7,182 to 184 °C,"CCC1(C)CN(c2c(F)cc3c(=O)c(C(=O)O)cn(C4CC4)c3c2OC)CCC1NC (stereo not drawn) [Compound 40, 1-Cyclopropyl-6-fluoro-1,4-dihydro-8-methoxy-7-(4-methylamino-3-ethyl-3-methyl-1-piperidinyl)-4-oxo-quinoline-3-carboxylic acid]"
8,205 °C (dec.),"CCNC1CCN(c2c(F)c(N)c3c(=O)c(C(=O)O)cn(C4CC4)c3c2OC)CC1(C)C (stereo not drawn) [Compound 74, 5-Amino-1-cyclopropyl-6-fluoro-1,4-dihydro-8-methoxy-7-(4-ethylamino-3,3-dimethyl-1-piperidinyl)-4-oxo-quinoline-3-carboxylic acid]"
9,160 to 162 °C,"CCNC1CCN(c2c(F)cc3c(=O)c(C(=O)O)cn(C4CC4)c3c2OC)CC1C (stereo not drawn) [Compound 10, 1-Cyclopropyl-6-fluoro-1,4-dihydro-8-methoxy-7-(4-ethylamino-3-methyl-1-piperidinyl)-4-oxo-quinoline-3-carboxylic acid]"
10,246 to 248 °C,"CNC1CCN(c2c(F)cc3c(=O)c(C(=O)O)cn(C4CC4)c3c2OC)CC1(C)C (stereo not drawn) [Compound 35, 1-Cyclopropyl-6-fluoro-1,4-dihydro-8-methoxy-7-(4-methylamino-3,3-dimethyl-1-piperidinyl)-4-oxo-quinoline-3-carboxylic acid]"

# From patent US6878713B2, “Generation triple-targeting, chiral, broad-spectrum antimicrobial 7-substituted piperidino-quinolone carboxylic acid derivatives, their preparation, compositions and use as medicaments” (Wockhardt Limited, priority 2001, dated 2005)
